O=C1[C@H]2Cc3c([nH]c4ccccc34)[C@@H](c3ccc4c(c3)CCC4)N2C(=O)CN1CC1CC1 [Example 94, (6R,12aR)-2,3,6,7,12,12a-Hexahydro-6-(5-Indanyl)-2-Cyclopropylmethylpyrazino(2′,1′:6,1)Pyrido(3,4-b)Indole-1,4-Dione]
melting point: 176 °C

COc1ccc([C@@H]2c3[nH]c4ccccc4c3C[C@@H]3C(=O)N(C4CCCC4)CC(=O)N23)cc1 [Example 86, (6R,12aR)-2,3,6,7,12,12a-Hexahydro-2-Cyclopentyl-6-(4-Methoxyphenyl)-Pyrazino(2′,1′:6,1)Pyrido(3,4-b)Indole-1,4-Dione]
melting point: 210 to 211 °C

O=C1[C@H]2Cc3c([nH]c4ccccc34)[C@@H](c3ccc4c(c3)OCO4)N2C(=O)CN1Cc1ccco1 [Example 105, (6R,12aR)-2,3,6,7,12,12a-Hexahydro-2-Furfuryl-6-(3,4-Methylenedioxyphenyl)-Pyrazino(2′,1′:6,1)Pyrido(3,4-b)Indole-1,4-Dione]
melting point: 219 °C

CN1CC(=O)N2[C@@H](c3ccc4c(c3)CCCC4)c3[nH]c4ccccc4c3C[C@@H]2C1=O (relative stereo) [Example 47, Cis-2,3,6,7,12,12a-Hexahydro-2-Methyl-6-(1,2,3,4-Tetrahydro-6-Naphthyl)Pyrazino(2′,1′:6,1)Pyrido(3,4-b)Indole-1,4-Dione]
melting point: 260 °C

CCCCN1CC(=O)N2[C@H](c3ccc(OC)cc3)c3[nH]c4ccccc4c3C[C@@H]2C1=O [Example 85, (6R,12aR)-2,3,6,7,12,12a-Hexahydro-2-Butyl-6-(4-Methoxyphenyl)-Pyrazino(2′,1′:6,1)Pyrido(3,4-b)Indole-1,4-Dione]
melting point: 183 to 184 °C

COc1ccc([C@H]2c3[nH]c4ccccc4c3C[C@@H]3C(=O)N(CC(F)(F)F)CC(=O)N23)cc1 (relative stereo) [Example 28, Cis-2,3,6,7,12,12a-Hexahydro-6-(4-Methoxyphenyl)-2-(2,2,2-Trifluoroethyl)Pyrazino(2′,1′:6,1)Pyrido(3,4-b)Indole-1,4-Dione]
melting point: 232 °C

CN1CC(=O)N2[C@@H](c3ccoc3)c3[nH]c4ccccc4c3C[C@@H]2C1=O (relative stereo) [Example 59, Cis-2,3,6,7,12,12a-Hexahydro-2-Methyl-6-(3-Furyl)-Pyrazino(2′,1′:6,1)Pyrido(3,4-b)Indole-1,4-Dione]
melting point: 250 °C

CN1CC(=O)N2[C@H](c3ccc4occc4c3)c3[nH]c4ccccc4c3C[C@@H]2C1=O [Example 120, (6R, 12aR)-2,3,6,7, 12, 12a-Hexahydro-6-(5-Benzofuranyl)-2-Methyl-Pyrazino[2′,1′:6,1]Pyrido[3,4-b]Indole-1,4-Dione]
melting point: 291 to 293 °C

CCCCN1CC(=O)N2[C@@H](c3ccc(C)cc3)c3[nH]c4ccccc4c3C[C@@H]2C1=O (relative stereo) [Example 63, Cis-2,3,6,7,12,12a-Hexahydro-2-Butyl-6-(4-Methylphenyl)-Pyrazino(2′,1′:6,1)Pyrido(3,4-b)Indole-1,4-Dione]
melting point: 194 °C

CCCCN1CC(=O)N2[C@@H](c3ccsc3)c3[nH]c4ccccc4c3C[C@@H]2C1=O (relative stereo) [Example 58, Cis-2,3,6,7,12,12a-Hexahydro-2-Butyl-6-(3-Thienyl)-Pyrazino(2′,1′:6,1)Pyrido(3,4-b)Indole-1,4-Dione]
melting point: 236 to 239 °C

O=C1[C@H]2Cc3c([nH]c4ccccc34)[C@H](c3ccc4c(c3)OCO4)N2C(=O)CN1Cc1ccccc1 (relative stereo) [Example 23, Cis-2,3,6,7,12,12a-Hexahydro-2-Benzyl-6-(3,4-Methylenedioxyphenyl)Pyrazino(2′,1′:6,1)Pyrido(3,4-b)Indole-1,4-Dione]
melting point: 285 to 287 °C

COc1ccc([C@H]2c3[nH]c4ccccc4c3C[C@@H]3C(=O)N(Cc4ccccc4)CC(=O)N23)cc1 (relative stereo) [Example 32, Cis-2,3,6,7,12,12a-Hexahydro-2-Benzyl-6-(4-Methoxyphenyl)Pyrazino(2′,1′:6,1)Pyrido(3,4-b)Indole-1,4-Dione]
melting point: 275 to 279 °C

Cc1ccc([C@H]2c3[nH]c4ccccc4c3C[C@@H]3C(=O)N(C)CC(=O)N23)o1 (relative stereo) [Example 60, Cis-2,3,6,7,12,12a-Hexahydro-2-Methyl-6-(5-Methyl-2-Furyl)-Pyrazino(2′,1′:6,1)Pyrido(3,4-b)Indole-1,4-Dione]
melting point: 303 °C

O=C1[C@H]2Cc3c([nH]c4ccccc34)[C@H](c3ccc4c(c3)OCO4)N2C(=O)CN1CC(F)(F)F (relative stereo) [Example 14, Cis-2,3,6,7,12,12a-Hexahydro-2-(2,2,2-Trifluoroethyl)-6-(3,4-Methylenedioxyphenyl)-Pyrazino(2′,1′:6,1)Pyrido(3,4-b)Indole-1,4-Dione]
melting point: 303 °C

CN1CC(=O)N2[C@@H](c3ccc(Br)s3)c3[nH]c4ccccc4c3C[C@@H]2C1=O (relative stereo) [Example 52, Cis-2,3,6,7,12,12a-Hexahydro-6-(5-Bromo-2-Thienyl)-2-Methylpyrazino(2′,1′:6,1)Pyrido(3,4-b)Indole-1,4-Dione]
melting point: 258 °C

CCCCN1CC(=O)N2[C@@H](c3ccc(NS(C)(=O)=O)cc3)c3[nH]c4ccccc4c3C[C@@H]2C1=O (relative stereo) [Example 100, Cis-2,3,6,7,12,12a-Hexahydro-2-Butyl-6-(4-Methylsulfonamidophenyl)-Pyrazino(2′,1′:6,1)Pyrido(3,4-b)Indole-1,4-Dione]
melting point: 188 °C

COc1ccc([C@H]2c3[nH]c4ccc(F)cc4c3C[C@@H]3C(=O)N(CC(F)(F)F)CC(=O)N23)cc1 (relative stereo) [Example 5, Cis-2,3,6,7,12,12a-Hexahydro-10-Fluoro-6-(4-Methoxyphenyl)-2-(2,2,2-Trifluoroethyl)-Pyrazino(2′,1′:6,1)Pyrido(3,4-b)Indole-1,4-Dione]
melting point: 190 °C

C[C@@H]1NC(=O)[C@H]2Cc3c([nH]c4ccccc34)[C@@H](c3ccc4occc4c3)N2C1=O [Example 123, (3S, 6R, 12aR)-2,3,6,7, 12, 12a-Hexahydro-6-(5-Benzofuranyl)-3-Methyl-Pyrazino[2′,1′:6,1]Pyrido [3,4-b]Indole-1,4-Dione]
melting point: 150 to 151 °C

CN1CC(=O)N2[C@H](c3ccc(O)c(O)c3)c3[nH]c4ccccc4c3C[C@@H]2C1=O [Example 118, (6R, 12aR)-2,3,6,7,12,12a-Hexahydro-6-(3,4-Dihydroxyphenyl)-2-Methylpyrazino(2′,1′:6,1)Pyrido(3,4-b)Indole-1,4-Dione]
melting point: 224 to 226 °C

CC(C)N1CC(=O)N2[C@@H](c3ccc4c(c3)OCO4)c3[nH]c4ccccc4c3C[C@@H]2C1=O (relative stereo) [Example 16, Cis-2,3,6,7,12,12a-Hexahydro-2-Isopropyl-6-(3,4-Methylenedioxyphenyl) Pyrazino(2′,1′:6,1)Pyrido(3,4-b)Indole-1,4-Dione]
melting point: 248 to 250 °C

Cc1ccc([C@H]2c3[nH]c4ccccc4c3C[C@@H]3C(=O)N(C)CC(=O)N23)s1 (relative stereo) [Example 56, Cis-2,3,6,7,12,12a-Hexahydro-2-Methyl-6-(5-Methyl-2-Thienyl)Pyrazino(2′,1′:6,1)Pyrido(3,4-b)Indole-1,4-Dione]
melting point: 282 °C

CCCCN1CC(=O)N2[C@@H](c3ccccc3Cl)c3[nH]c4ccccc4c3C[C@@H]2C1=O (relative stereo) [Example 40, Cis-2,3,6,7,12,12a-Hexahydro-2-Butyl-6-(2-Chlorophenyl) Pyrazino(2′,1′:6,1)Pyrido(3,4-b)Indole-1,4-Dione]
melting point: 146 °C

COc1ccc(CCN2CC(=O)N3[C@H](c4ccc5c(c4)OCO5)c4[nH]c5ccccc5c4C[C@@H]3C2=O)cc1OC [Example 104, (6R,12aR)-2,3,6,7,12,12a-Hexahydro-2-(3,4-Dimethoxyphenethyl)-6-(3,4-Methylenedioxyphenyl)-Pyrazino(2′,1′:6,1)Pyrido(3,4-b)Indole-1,4-Dione]
melting point: 265 to 266 °C

CN1CC(=O)N2[C@@H](c3cc(Br)cs3)c3[nH]c4ccccc4c3C[C@@H]2C1=O (relative stereo) [Example 53, Cis-2,3,6,7,12,12a-Hexahydro-6-(4-Bromo-2-Thienyl)-2-Methylpyrazino(2′,1′:6,1)Pyrido(3,4-b)Indole-1,4-Dione]
melting point: 292 °C

O=C1[C@H]2Cc3c([nH]c4ccccc34)[C@H](c3ccc4c(c3)OCO4)N2C(=O)CN1Cc1cccnc1 (relative stereo) [Example 11, Cis-2,3,6,7,12,12a-Hexahydro-2-(3-Pyridylmethyl)-6-(3,4-Methylenedioxyphenyl)-Pyrazino(2′,1′:6,1)Pyrido(3,4-b)Indole-1,4-Dione]
melting point: 292 to 293 °C

CC(C)N1CC(=O)N2[C@H](c3ccc4occc4c3)c3[nH]c4ccccc4c3C[C@@H]2C1=O [Example 122, (6R, 12aR)-2,3,6,7, 12, 12a-Hexahydro-6-(5-Benzofuranyl)-2-Isopropyl-Pyrazino [2′,1′:6,1]Pyrido [3,4-B]Indole-1,4-Dione]
melting point: 291 to 292 °C

O=C1[C@H]2Cc3c([nH]c4ccccc34)[C@H](c3ccc4c(c3)CCO4)N2C(=O)CN1CC1CC1 (relative stereo) [Example 37, Cis-2,3,6,7,12,12a-Hexahydro-6-(2,3-Dihydrobenzo(b)Furan-5-yl)-2-Cyclopropylmethyl-Pyrazino(2′,1′:6,1)Pyrido(3,4-b)Indole-1,4-Dione]
melting point: 165 to 166 °C

CC(C)c1ccc([C@H]2c3[nH]c4ccccc4c3C[C@@H]3C(=O)N(C)CC(=O)N23)cc1 (relative stereo) [Example 74, Cis-2,3,6,7,12,12a-Hexahydro-6-(4-Isopropylphenyl)-2-Methylpyrazino(2′,1′:6,1)Pyrido(3,4-b)Indole-1,4-Dione]
melting point: 244 °C

CC(C)N1CC(=O)N2[C@@H](c3ccc4c(c3)CCCC4)c3[nH]c4ccccc4c3C[C@@H]2C1=O (relative stereo) [Example 48, Cis-2,3,6,7,12,12a-Hexahydro-2-Isopropyl-6-(1,2,3,4-Tetrahydro-6-Naphthyl)Pyrazino(2′,1′:6,1)Pyrido(3,4-b)Indole-1,4-Dione]
melting point: 244 to 246 °C

Source: US20020035111A1, “Method of inhibiting neoplastic cells with tetracyclic pyrido[3,4-B] indole derivatives” (priority 1998, published 2002)
